Legend:
[1] = target: T1, Substance-P receptor (Homo sapiens, UniProt P25103); assay: Displacement of [125I]-labeled substance P from human Tachykinin receptor 1 expressed in CHO cells; type: cell-based
[2] = target: T1, Substance-P receptor; assay: Percent displacement of [125I]-labeled substance P from the cloned human Tachykinin receptor 1 expressed in CHO cells at a concentration of 1 uM of the compound; type: cell-based
[3] = target: T1, Substance-P receptor; assay: Displacement of [125I]-substance P from human Tachykinin receptor 1
[4] = target: T1, Substance-P receptor; assay: Percent displacement of [125I]-labeled substance P from the cloned human Tachykinin receptor 1 expressed in CHO cells at 1 uM; type: cell-based
[5] = system: Gerbillinae; assay: CNS penetration was assessed by compounds ability in gerbils to block the foot-tapping induced by central infusion of the NK1-selective agonist GR-73632 when administered intravenously; type: functional; settings: iv, read-out: ID50 (the source's name)

T1 sequence (P25103 whole entry): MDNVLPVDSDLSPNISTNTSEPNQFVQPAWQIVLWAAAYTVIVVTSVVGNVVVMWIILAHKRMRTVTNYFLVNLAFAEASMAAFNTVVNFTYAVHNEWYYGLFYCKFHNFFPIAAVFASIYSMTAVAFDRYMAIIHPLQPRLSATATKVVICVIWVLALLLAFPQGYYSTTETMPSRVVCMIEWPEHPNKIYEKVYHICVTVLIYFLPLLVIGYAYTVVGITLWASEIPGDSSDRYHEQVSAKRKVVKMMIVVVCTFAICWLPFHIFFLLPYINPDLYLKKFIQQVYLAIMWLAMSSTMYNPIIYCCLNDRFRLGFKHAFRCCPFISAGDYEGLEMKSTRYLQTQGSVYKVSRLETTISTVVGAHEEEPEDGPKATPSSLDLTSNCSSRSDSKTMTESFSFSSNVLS

SMILES | IC50 [1] | also measured
Fc1ccc([C@@H]2NCCOC23COC[C@H](c2cccc(C(F)(F)F)c2)C3)cc1 (stereo partly drawn) | 0.03 µM | 
Fc1ccc(C2NCCOC23CCC(c2cccc(C(F)(F)F)c2)CO3)cc1 (stereo not drawn) | 0.513 µM | 
COc1ccc([C@H]2COCC3(C2)OCCN[C@H]3c2ccc(F)cc2)cc1 (stereo partly drawn) |  | Affinity [2]: 27%
Fc1ccc([C@@H]2NCCOC23COC[C@H](c2ccccc2C(F)(F)F)C3)cc1 (stereo partly drawn) | 0.024 µM | 
Fc1ccc([C@@H]2NCCO[C@@]23CC[C@@H](c2ccccc2C(F)(F)F)CO3)cc1 |  | IC50 [3]: 0.028 µM
COc1ccccc1[C@H]1COCC2(C1)OCCN(Cc1n[nH]c(O)n1)[C@H]2c1ccc(F)cc1 (stereo partly drawn) | 0.00056 µM | 
COc1ccc(F)cc1[C@H]1COCC2(C1)OCCN[C@H]2c1ccc(F)cc1 (stereo partly drawn) | 0.01 µM | 
Fc1ccc(C2NCCOC23CCC(c2ccc(C(F)(F)F)cc2)CO3)cc1 (stereo not drawn) |  | Affinity [2]: 55%
Fc1ccc([C@@H]2NCCO[C@@]23CC[C@H](c2ccccc2C(F)(F)F)CO3)cc1 |  | Affinity [4]: 44%
Fc1ccc([C@@H]2NCCOC23COC[C@H](c2ccccc2)C3)cc1 (stereo partly drawn) | 0.099 µM | 
COc1ccc(OC)c([C@H]2COCC3(C2)OCCN[C@H]3c2ccc(F)cc2)c1 (stereo partly drawn) | 0.016 µM | 
c1ccc(C2CCC3(OCCNC3c3ccccc3)OC2)cc1 (stereo not drawn) | 0.17 µM | 
COc1ccc(C(C)C)cc1[C@H]1COCC2(C1)OCCN[C@H]2c1ccc(F)cc1 (stereo partly drawn) | 0.0028 µM | 
CN(C)Cc1nn[nH]c1CN1CCOC2(CCC(c3ccccc3OC(F)(F)F)CO2)C1c1ccc(F)cc1 (stereo not drawn) | 0.0014 µM | ED50 [5]: 0.6 mg/kg
COc1ccc(-n2nnnc2C(F)(F)F)cc1[C@H]1COCC2(C1)OCCN(Cc1n[nH]c(O)n1)[C@H]2c1ccc(F)cc1 (stereo partly drawn) | 0.0001 µM | 
Fc1ccc([C@@H]2NCCO[C@]23CC[C@H](c2ccccc2C(F)(F)F)CO3)cc1 |  | IC50 [3]: 0.4 µM
COc1cccc([C@H]2COCC3(C2)OCCN[C@H]3c2ccc(F)cc2)c1 (stereo partly drawn) | 0.183 µM | 
O=c1[nH]nc(CN2CCOC3(CCC(c4ccccc4)CO3)C2c2ccccc2)[nH]1 (stereo not drawn) | 0.019 µM | 
COc1ccccc1[C@H]1COCC2(C1)OCCN[C@H]2c1ccc(F)cc1 (stereo partly drawn) | 0.013 µM | 
Fc1ccc([C@@H]2NCCO[C@]23CC[C@@H](c2ccccc2C(F)(F)F)CO3)cc1 |  | Affinity [4]: 47%
CN(C)Cc1nn[nH]c1CN1CCOC2(CCC(c3ccccc3C(F)(F)F)CO2)C1c1ccc(F)cc1 (stereo not drawn) | 0.0011 µM | ED50 [5]: 1.1 mg/kg
